Data set [1] concerns the target T1, MT2 (Homo sapiens, UniProt P49286).
T1 sequence (P49286 1-362): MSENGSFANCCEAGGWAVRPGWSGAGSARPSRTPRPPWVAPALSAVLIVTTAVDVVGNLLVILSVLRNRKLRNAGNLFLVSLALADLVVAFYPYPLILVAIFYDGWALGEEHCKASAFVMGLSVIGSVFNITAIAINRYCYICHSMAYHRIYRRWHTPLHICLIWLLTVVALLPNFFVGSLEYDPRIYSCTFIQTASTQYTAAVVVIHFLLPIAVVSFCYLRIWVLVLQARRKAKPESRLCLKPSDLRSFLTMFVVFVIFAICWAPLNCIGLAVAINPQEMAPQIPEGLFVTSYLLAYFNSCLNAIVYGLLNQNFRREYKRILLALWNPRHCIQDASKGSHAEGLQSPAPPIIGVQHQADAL
Nature of the data set: Intracellular Ca2+ mobilization (FLIPR) in MT2-CHO cells co-expressing 16z25. The format is cell-based. Set-up: expressed in transfected cells. The settings on record: for shift of melatonin dose-response curve in FLIPR assay, MT2-CHO (competitive antagonism): preincubation with 10 µM or 1 µM of 7e or 7f. Here is the method:
Tested compounds in different concentrations were diluted in assay buffer in 5× of the final desired concentrations in a V-bottomed microplate, and both the cell and compound plates were put into the fluorometric imaging plate reader FLIPR^TETRA (Molecular Devices, Sunnyvale, CA). […] The peak of the time course of fluorescence changes was expressed in relative fluorescence units (RFU). Dose response curves were constructed by non-linear regression using GraphPad Prism 3.
(Calcium assays in cells follow changes in intracellular calcium, usually with a dye or a luminescent sensor.)

Data set [2] has as its target T1, MT2. Nature of the data set: Inhibition of forskolin-stimulated cAMP accumulation in MT2-CHO cells. More on the design: expressed in transfected cells. The format is cell-based. Here is the method:
(§1) Both MT1 and MT2 are classified as Gi-coupled receptors with their activation leading to inhibition of intracellular cAMP production. The ability of the tested compounds to activate the endogenously expressed Gi-mediated inhibition of cAMP production was therefore examined.
(§2) All the responses were expressed as the percentage of that induced by forskolin alone (as 100%).
(§3) 2×10^5 cells were seeded in each well of 12-well plates and grown for overnight. Each well was labeled with 1 ml of [^3H]adenine (1 µCi/ml) in F-12K medium containing 1% FBS (vol/vol) for overnight. The labeling media were then replaced by 1 ml of 20 mM HEPES-buffered F-12K containing 1 mM isobutylmethylxanthine (IBMX) and the tested compounds at desired concentrations, and incubated at 37°C for 30 min. The reaction was stopped by aspiration and adding 1 ml prechilled 5% trichloroacetic acid (w/v) with 1 mM ATP, and stored at 4°C for 30 min. [^3H]cAMP was extracted from the pool of labeled adenosine nucleotides by sequential ion-exchange chromatography as previously described. The radioactivity of labeled cAMP and total labeled nucleotide fractions separated by chromatography were estimated by scintillation counting. Inhibition curves were constructed by non-linear regression using GraphPad Prism 3.
On the technique in general: Cyclic AMP is a second messenger, typically raised through Gs and lowered through Gi signalling.

For data set [3], the target named is T1, MT2. Nature of the data set: biochemical. Particulars: for Ki: MT2 Ki, calculated from mean pIC50 (Cheng-Prusoff), 1 nM [3H]melatonin, intact CHO cells; for Emax: read-out: MT2 %Resp±SEM (percentage of melatonin-mediated displacement of radioligand binding).
Experimental: (§4) Competitive receptor binding characteristics of melatonin and the 15 tested compounds towards human MT1 and MT2 stably expressed in Chinese hamster ovary (CHO) cells were determined using intact cell preparation pre-incubated with 1 nM [^3H]melatonin.
(§5) Individual melatonin receptor subtype (either MT1 or MT2) was stably co-expressed with a G protein chimera 16z25 in Chinese hamster ovary (CHO) cells, hereafter denoted as CHO-hMT1 and CHO-hMT2, respectively. […] Single cell-derived colonies of the stable lines with sufficiently high receptor density and robust responses in the fluorometric assay (as described below) were isolated from the pool of transfected cell. Usage of these clonal lines was limited to 15 passages to prevent degradation of signal detection.
(§6) Competitive binding assays were performed as described [26]. Cells were suspended in binding buffer (50 mM Tris, 2 mM MgCl2, 1 mM EGTA, pH 7.4) in the density of 1.5×10^5 cell/ml. 1 nM [^3H]melatonin and increasing concentrations of a tested compound was included. Cells were incubated at 4°C for 60 min with intermittent agitation and the reaction was stopped by rapid filtration through GF/C filters pre-soaked in 10 mM Tris, pH 7.4 and washed with 1 ml of prechilled binding buffer. Retained radioactivity was measured with Wallac 1450 Microbeta Jet scintillation counter. Competition curves were drawn as one-site competition nonlinear regression model using GraphPad Prism 3.03 to the data which were means ± SEM of 3–4 independent experiments performed in duplicates. In every assay, melatonin was included as standard reference with highly reproducible Ki values, which were calculated using the Cheng-Prusoff equation.
Data set [4] addresses T2, MT1 (Homo sapiens, UniProt P48039). The settings on record: 1 nM [3H]melatonin, intact CHO cells, 4°C 60 min; mean ± SEM of 3–5 trials; NSB = no specific binding for up to 30 µM.
Experimental: as §4, §5, §6
Data set [5] addresses T2, MT1. Briefly: Inhibition of forskolin-stimulated cAMP accumulation in MT1-CHO cells. The format is cell-based. Set-up: expressed in transfected cells. Here is the method:
as §1, §2, §3

Data set [6] has as its target T1, MT2. Briefly: Immunodetection of ERK phosphorylation in MT2-CHO cells. The class given is cell-based. More on the design: expressed in transfected cells. Particulars: for suppression of melatonin-induced ERK phosphorylation in MT2-CHO cells (antagonism): 1 nM melatonin (MLT), 7e and 7f at 10 µM; for ERK phosphorylation in MT2-CHO cells (in words): immunoblot. Here is the method: CHO cells expressing MT1 or MT2 were serum-starved before treating with the indicated concentrations of melatonin or individual tested compounds. Resolved proteins were electrotransferred for immunodetection using phosphorylated ERK-specific antibody.
(A) CHO cells expressing MT1 or MT2 were treated with the indicated concentrations of 7e or luzindole in the absence or presence of a fixed concentration of melatonin (MLT) (for both MT1 or MT2) or 7b (for MT2 only). Other experimental details were as to the legend of Figure 5. Data shown were representative blots of three separate trials. (B) CHO cells expressing MT2 were treated with increasing concentrations (1 ρM – 1 µM) of melatonin in the absence or presence of 10 µM or 1 µM of 7e or 7f. Other experimental details were as to the legend of Figure 4.
2×10^5 cells were seeded into each well of 12-well plates for overnight before serum withdrawal for 4 h to reduce the basal ERK phosphorylation. Tested compounds were diluted in serum-free culture medium at desired concentrations and treated the cells for 5 min. Reactions was stopped by aspiration and then adding 150 µl of lysis buffer with protease inhibitors (50 mM Tris–HCl, pH 7.5, 100 mM NaCl, 5 mM EDTA, 40 mM NaP2O7, 1% Triton X-100, 1 mM dithiothreitol, 200 µM Na3VO4, 100 µM phenylmethylsulfonyl fluoride, 2 µg/ml leupeptin, 4 µg/ml aprotinin, and 0.7 µg/ml pepstain). Cells were allowed to lyse for 30 min at 4°C with agitation, and the collected total cell lysates were cleared by centrifugation. Protein samples were resolved in SDS-PAGE and transferred to nitrocellulose membranes using iBlot system (Invitrogen). Phosphorylated ERK was detected using specific antibodies as described previously. Chemiluminescence signals on the blots were detected on X-ray films.
A general note: A western blot detects proteins with antibodies after separation by electrophoresis.

Data set [7] deals with T2, MT1. Nature of the data set: biochemical.
Experimental: as §4, §5, §6
Data set [8] concerns the target T1, MT2. The settings on record: Ki(MT1)/Ki(MT2).
Experimental: as §4, §5, §6
[9] abbreviates: MT2-CHO cells, FLIPR, calculated from mean pEC50, NSR = no significant response for up to 30 µM.

What is called EC50 is the midpoint of the concentration-response curve. What is called IC50 is the midpoint of a concentration-inhibition curve. By Ki is commonly meant the equilibrium dissociation constant of an inhibitor or competing ligand from its target. The melting point is the temperature of the solid-liquid transition.
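Wherever MT1 pIC50±SEM is given: competitive radioligand displacement on intact CHO cells stably co-expressing human MT1 together with the G protein chimera 16z25, using rising concentrations of each compound.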
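Wherever Selectivity, ratio Ki(MT1)/Ki(MT2) is given: competition binding on intact CHO cells stably co-expressing human MT2 with G protein chimera 16z25, displacing [3H]melatonin at 4°C over 60 min, melatonin run as reference.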

T2 sequence (P48039 whole entry): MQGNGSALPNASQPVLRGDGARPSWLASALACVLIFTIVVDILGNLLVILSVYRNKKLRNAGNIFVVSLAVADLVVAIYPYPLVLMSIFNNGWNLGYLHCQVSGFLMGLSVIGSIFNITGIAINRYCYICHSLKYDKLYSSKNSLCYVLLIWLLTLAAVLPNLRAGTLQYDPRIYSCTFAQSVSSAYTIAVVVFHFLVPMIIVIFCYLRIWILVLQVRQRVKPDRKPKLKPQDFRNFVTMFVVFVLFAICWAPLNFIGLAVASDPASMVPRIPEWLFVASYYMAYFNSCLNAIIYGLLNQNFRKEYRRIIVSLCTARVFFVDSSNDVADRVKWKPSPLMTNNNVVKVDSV

As for `COc1ccccc1COc1cc2ccn(C)c(=O)c2cc1OC` [7d, 7-Methoxy-6-(2-methoxy-benzyloxy)-2-methylisoquinolin-1(2H)-one], the melting point was 150 to 152 °C. For the same molecule, in data set [1] (MT2-CHO), the “reduction of ability to trigger Ca2+ signal on moving methoxy from meta to ortho (vs 7b)” value was 2 orders of magnitude. Also, in data set [1] (MT2-CHO cells, FLIPR, calculated from mean pEC50, NSR = no significant response for up to 30 µM, read-out: MT2 EC50, Ca2+ mobilization), the EC50 is 25.7 nM. For the same molecule, the Emax in data set [1] (MT2, percentage of melatonin (MT)-mediated stimulation of Ca2+ signal, read-out: MT2 %Resp ±SEM, Ca2+ signal) is 85 ± 22%. Also, the IC50 in [2] (MT2-CHO cells, 50 µM forskolin, calculated from mean pIC50, read-out: MT2 IC50, inhibition of cAMP production) was 247 nM. Moreover, the “MT2 %Inhmax ±SEM” value in [2] (maximal percentage inhibition of the forskolin-elevated cAMP level, MT2-CHO) is 59±5%. For the same molecule, in [3], the IC50 was 2240 nM, the Ki is 674 nM and the Emax was 79 ± 5%. Besides, the “MT1 pIC50±SEM” value in [4] is “NSB”. The “inhibition of cAMP levels in MT1-CHO cells (in words)” value in data set [5] (forskolin-stimulated) was “observable inhibition”. The “MT1 %Inhmax ±SEM” value in [5] (maximal percentage inhibition of the forskolin-elevated cAMP level, MT1-CHO) turned out to be 33±13%. Also, the IC50 in data set [5] (read-out: MT1 IC50, inhibition of cAMP production) was found to be 396 nM.

`COc1ccc(COc2cc3ccn(C)c(=O)c3cc2OC)cc1` [7e, 7-Methoxy-6-(4-methoxy-benzyloxy)-2-methylisoquinolin-1(2H)-one] came in with a melting point of 170 to 172 °C. For the same molecule, the “Ca2+ mobilization activity at MT2 (in words)” value (“Ca2+ mobilization activity” below) in data set [1] (MT2-CHO cells, FLIPR) is “null response”. In addition, the “MT2 EC50, Ca2+ mobilization” value in data set [1] (setting [9]) was “NSR”. For the same molecule, the “shift of melatonin dose-response curve in FLIPR assay, MT2-CHO (competitive antagonism)” value in [1] is listed as “parallel right shift”. In addition, in data set [6], the “suppression of melatonin-induced ERK phosphorylation in MT2-CHO cells (antagonism)” value is listed as “reduced to almost the basal level”. Also, in [6] (agonist 7b 100 nM, 7e at 10 µM), the “suppression of 7b-induced ERK phosphorylation in MT2-CHO cells (antagonism)” value is on record as “significantly suppressed”. In [3], the IC50 was 1120 nM, the Ki was 334 nM and the Emax was 47 ± 5%. Moreover, the “MT1 pIC50±SEM” value in data set [4] is listed as “NSB”.

`COc1cc2c(=O)n(C)ccc2cc1OCc1ccc(C)cc1` [7f, 7-Methoxy-2-methyl-6-(4-methyl-benzyloxy)-isoquinolin-1(2H)-one] returned a melting point of 120 to 122 °C. Besides, in data set [7], half-maximal inhibition (IC50) required 8.91 µM and the affinity, expressed as Ki, was 2040 nM. The Emax in [7] (read-out: MT1 %Resp±SEM (percentage of melatonin-mediated displacement of radioligand binding)) was found to be 38 ± 10%. For the same molecule, the “MT2 EC50, Ca2+ mobilization” value in data set [1] (setting [9]) was “NSR”. Besides, the “shift of melatonin dose-response curve in FLIPR assay, MT2-CHO (competitive antagonism)” value in data set [1] was “parallel right shift”. Besides, in data set [6], the “suppression of melatonin-induced ERK phosphorylation in MT2-CHO cells (antagonism)” value is recorded as “partial inhibition”. In data set [3], the half-inhibitory concentration (IC50) was 1100 nM, the inhibition constant (Ki) was 333 nM and the Emax was determined as 70 ± 6%. The “Selectivity, ratio Ki(MT1)/Ki(MT2)” value in data set [8] is listed as 6.13.

Turning to `COc1cc2ccn(C)c(=O)c2cc1OCc1ccccc1` [14a, 7-Benzyloxy-6-methoxy-2-methylisoquinolin-1(2H)-one], the melting point is 132 to 134 °C. Also, the “Ca2+ mobilization activity” value in data set [1] (MT2-CHO cells, FLIPR) is “basically inactive”. The “MT2 EC50, Ca2+ mobilization” value in data set [1] (setting [9]) is reported as “NSR”. The “ERK phosphorylation in MT2-CHO cells (in words)” value in [6] was “essentially inactive”. In addition, in [3], the half-maximal inhibitory concentration (IC50) was 14800 nM, the inhibition constant (Ki) was 4460 nM and the Emax was found to be 78 ± 8%. For the same molecule, the “MT1 pIC50±SEM” value in data set [4] is “NSB”.

`COc1cc2ccn(C)c(=O)c2cc1OCc1ccc(C)cc1` [14d, 6-Methoxy-2-methyl-7-(4-methyl-benzyloxy)-isoquinolin-1(2H)-one] yielded a melting point of 150 to 152 °C. Further, the “Ca2+ mobilization activity” value in [1] (MT2-CHO cells, FLIPR) is “basically inactive”. For the same molecule, the “MT2 EC50, Ca2+ mobilization” value in data set [1] (setting [9]) is “NSR”. The “ERK phosphorylation in MT2-CHO cells (in words)” value in data set [6] was “essentially inactive”. Also, in data set [3], half-maximal inhibition (IC50) was put at 13800 nM, the Ki is 4150 nM and the Emax came out at 73 ± 10%. In addition, the “MT1 pIC50±SEM” value in [4] is recorded as “NSB”.

Source of the values: paper PMC4257560, “Synthesis and Functional Characterization of Substituted Isoquinolinones as MT2-Selective Melatoninergic Ligands” (PLoS ONE, 2014).
